Biological target: T1, NR2F6 (Homo sapiens, UniProt P10588)
T1 construct: expressed in transfected cells; also transient transfection
T1 sequence (P10588 1-404): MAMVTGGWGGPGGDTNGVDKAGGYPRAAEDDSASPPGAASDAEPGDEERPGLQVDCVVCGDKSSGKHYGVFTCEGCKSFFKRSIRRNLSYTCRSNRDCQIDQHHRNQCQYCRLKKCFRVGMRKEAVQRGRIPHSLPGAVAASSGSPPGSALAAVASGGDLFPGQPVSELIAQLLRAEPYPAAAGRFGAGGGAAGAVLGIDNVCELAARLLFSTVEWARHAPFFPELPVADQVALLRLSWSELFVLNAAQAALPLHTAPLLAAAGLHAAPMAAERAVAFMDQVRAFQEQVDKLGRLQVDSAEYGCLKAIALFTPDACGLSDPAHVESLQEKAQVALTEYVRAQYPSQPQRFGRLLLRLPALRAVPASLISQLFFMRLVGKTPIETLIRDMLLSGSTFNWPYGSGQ
Experiment: NR2F6 agonist screening, Firefly signal cmpd/DMSO
Format: cell-based
Conditions: for Firefly/Renilla (NR2F6 stable, clone F4): ratio Firefly/Renilla; for Firefly, NR2F6 stable (clone F4)/pGL4: ratio of Firefly in NR2F6 stable clone F4 to pGL4

[1] = C11 analogs follow set (Tables 2-10)

| Structure (SMILES) | Firefly, cmpd/DMSO repeat 1 [1] | Firefly, cmpd/DMSO repeat 2 [1] | Firefly/Renilla (NR2F6 stable, clone F4) (Table 13) | Firefly, NR2F6 stable (clone F4)/pGL4 (Table 13) | Firefly, cmpd/DMSO repeat 1 (Table 13) | Firefly, cmpd/DMSO repeat 2 (Table 13) |
| --- | --- | --- | --- | --- | --- | --- |
| O=C(NCc1ccccc1)c1ccc2oc(=O)c(S(=O)(=O)c3ccccc3)cc2c1 [Compound C115] | 6.8 | 21.9 | – | – | – | – |
| Cc1ccc(CNC(=O)c2ccc3oc(=O)c(S(=O)(=O)c4ccc(Cl)cc4)cc3c2)cc1 [Compound C116] | 8.6 | 9.0 | – | – | – | – |
| COc1ccc(CNC(=O)c2ccc3oc(=O)c(S(=O)(=O)c4ccc(F)cc4)cc3c2)cc1 [Compound C117] | 17.3 | 24.1 | – | – | – | – |
| O=C(NCc1ccc(F)cc1)c1ccc2oc(=O)c(S(=O)(=O)c3ccc(F)cc3)cc2c1 [Compound C118] | 13.5 | 17.1 | 1.1 | 5.9 | 13.5 | 17.1 |
| O=C(NCc1ccc(F)cc1)c1ccc2oc(=O)c(S(=O)(=O)c3ccc(Cl)cc3)cc2c1 [Compound C119] | 18.4 | 16.2 | – | – | – | – |
| O=C(Nc1ccccc1C(F)(F)F)c1ccc2oc(=O)c(S(=O)(=O)c3ccc(F)cc3)cc2c1 [Compound C120] | 4.5 | 6.3 | – | – | – | – |
| COc1ccc(NC(=O)c2ccc3oc(=O)c(S(=O)(=O)c4ccc(C)cc4)cc3c2)cc1OC [Compound C121] | 9.0 | 21.5 | – | – | – | – |
| COc1ccc(NC(=O)c2ccc3oc(=O)c(S(=O)(=O)c4ccc(Cl)cc4)cc3c2)cc1OC [Compound C122] | 4.4 | 5.7 | – | – | – | – |
| COc1ccccc1NC(=O)c1ccc2oc(=O)c(S(=O)(=O)c3ccccc3)cc2c1 [Compound C123] | 17.7 | 16.8 | – | – | – | – |
| COc1ccccc1NC(=O)c1ccc2oc(=O)c(S(=O)(=O)c3ccc(F)cc3)cc2c1 [Compound C124] | 25.5 | 29.8 | – | – | – | – |
| COc1ccccc1NC(=O)c1ccc2oc(=O)c(S(=O)(=O)c3ccc(Cl)cc3)cc2c1 [Compound C125] | 28.0 | 24.5 | – | – | – | – |

The next lines start with the values.

| Firefly, cmpd/DMSO repeat 1 [1] | Firefly, cmpd/DMSO repeat 2 [1] | Firefly/Renilla (NR2F6 stable, clone F4) (Table 13) | Firefly, NR2F6 stable (clone F4)/pGL4 (Table 13) | Firefly, cmpd/DMSO repeat 1 (Table 13) | Firefly, cmpd/DMSO repeat 2 (Table 13) | Structure (SMILES) |
| --- | --- | --- | --- | --- | --- | --- |
| 45.1 | 44.8 | 1.0 | 9.9 | 45.1 | 44.8 | COc1cccc(NC(=O)c2ccc3oc(=O)c(S(=O)(=O)c4ccc(C)cc4)cc3c2)c1 [Compound C126] |
| 36.7 | 56.2 | 1.1 | 5.7 | 36.7 | 56.2 | COc1cccc(NC(=O)c2ccc3oc(=O)c(S(=O)(=O)c4ccc(F)cc4)cc3c2)c1 [Compound C127] |
| 1.7 | 5.2 | – | – | – | – | O=C(Nc1cccc(Cl)c1)c1ccc2oc(=O)c(S(=O)(=O)c3ccc(F)cc3)cc2c1 [Compound C128] |
| 0.9 | 1.2 | – | – | – | – | O=C(Nc1ccc(Cl)cc1)c1ccc2oc(=O)c(S(=O)(=O)c3ccc(F)cc3)cc2c1 [Compound C129] |
| 2.3 | 3.4 | – | – | – | – | COc1cc(NC(=O)c2ccc3oc(=O)c(S(=O)(=O)c4ccccc4)cc3c2)cc(OC)c1 [Compound C130] |
| 9.5 | 15.3 | – | – | – | – | COc1cc(NC(=O)c2ccc3oc(=O)c(S(=O)(=O)c4ccc(C)cc4)cc3c2)cc(OC)c1 [Compound C131] |
| 1.4 | 1.4 | – | – | – | – | COc1cc(NC(=O)c2ccc3oc(=O)c(S(=O)(=O)c4ccc(F)cc4)cc3c2)cc(OC)c1 [Compound C132] |
| 2.1 | 4.3 | – | – | – | – | COc1cc(NC(=O)c2ccc3oc(=O)c(S(=O)(=O)c4ccc(Cl)cc4)cc3c2)cc(OC)c1 [Compound C133] |

— US11377442B2, “Small molecule agonists and antagonists of NR2F6 activity” (ZANDER THERAPEUTICS, INC., priority 2016, dated 2022)
